The nature of test [1]: Inhibition of HIV reverse transcriptase. Also noted: species or system Human immunodeficiency virus.
The target in test [2] is T1, Follicle-stimulating hormone receptor (Homo sapiens, UniProt P23945).
T1 sequence (P23945 whole entry): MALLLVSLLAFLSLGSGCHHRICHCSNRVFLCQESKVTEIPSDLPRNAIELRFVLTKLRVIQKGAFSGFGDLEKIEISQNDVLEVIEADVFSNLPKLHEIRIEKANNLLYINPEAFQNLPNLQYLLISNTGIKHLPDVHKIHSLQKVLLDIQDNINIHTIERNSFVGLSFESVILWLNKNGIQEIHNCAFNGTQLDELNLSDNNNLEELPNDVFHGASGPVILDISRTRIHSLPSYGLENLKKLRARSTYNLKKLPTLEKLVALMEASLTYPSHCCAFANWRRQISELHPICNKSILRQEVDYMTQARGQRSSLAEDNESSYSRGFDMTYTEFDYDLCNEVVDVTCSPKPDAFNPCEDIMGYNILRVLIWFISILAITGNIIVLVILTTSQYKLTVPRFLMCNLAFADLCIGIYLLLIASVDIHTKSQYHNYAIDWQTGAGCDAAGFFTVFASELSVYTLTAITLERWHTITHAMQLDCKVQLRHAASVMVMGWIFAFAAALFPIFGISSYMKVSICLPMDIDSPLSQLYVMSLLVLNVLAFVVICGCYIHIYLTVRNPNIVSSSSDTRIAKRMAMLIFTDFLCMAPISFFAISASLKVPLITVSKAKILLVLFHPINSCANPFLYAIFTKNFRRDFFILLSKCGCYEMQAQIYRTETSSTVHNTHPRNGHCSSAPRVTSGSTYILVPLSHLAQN
In words: Allosteric activation of human FSH receptor.

For test [3], the target named is T1, Follicle-stimulating hormone receptor. In words: Agonist activity at human FSH receptor by cAMP-based assay. The test is classed as functional.
The target is the same in test [4]. Description: Agonist activity at human FSH receptor by aromatase-based assay. The test is classed as functional.
Another test deals with Caenorhabditis elegans. Description: Nematicidal activity against Caenorhabditis elegans after 2 days. Particulars: 48 h, read-out: LD50 (the source's name). The class given is functional.
Test [5] addresses C-C chemokine receptor type 4 (Homo sapiens, UniProt P51679). Description: Antagonist activity at CCR4. The class given is functional.
The subject of the next test is Bacillus subtilis. In words: Antibacterial activity against Bacillus subtilis. The test is classed as functional.
In the next test the test system is Salmonella typhimurium. Description: Antibacterial activity against Salmonella typhimurium. The class given is functional, Salmonella enterica subsp. enterica serovar Typhimurium.
The subject of a further test is Escherichia coli. In words: Antibacterial activity against Escherichia coli. The test is classed as functional.
For test [6], the system named is Human immunodeficiency virus 1. In words: Antiviral activity against HIV1. The class given is functional, organism-based.
Test [7] relates to Ditylenchus myceliophagus. In words: Nematicidal activity against Ditylenchus myceliophagus after 2 days. The test is classed as functional. Particulars: 48 h, read-out: LD50 (the source's name).
The test system of test [8] is Mycobacterium tuberculosis. In words: Growth inhibition of Mycobacterium tuberculosis H37Rv. The test is classed as functional.
Test [9] has as its system Mycobacterium tuberculosis. In words: Growth inhibition of Mycobacterium tuberculosis H37Rv at 6.25 ug/ml. The test is classed as functional. Particulars: read-out: GI.
A further test relates to Rattus norvegicus. In words: Antiinflammatory activity in rat assessed as inhibition of carageenaan-induced paw edema relative to control. The class given is functional.
The test system of test [10] is Bovine viral diarrhea virus 1. In words: Antiviral activity against Bovine viral diarrhea virus. The class given is functional, organism-based. To be noted: Bovine viral diarrhea virus isolates and strains.
In test [11] the target is Muscarinic acetylcholine receptor M1 (Rattus norvegicus, UniProt P08482). In words: Displacement of [3H]QNB from M1 receptor in Wistar rat cerebral cortex homogenate. The test is classed as tissue-based. A general note: In a radioligand displacement assay an active substance lowers the binding of a labelled ligand.
The target of test [12] is Phosphotyrosine-protein phosphatase PTPB (Mycobacterium tuberculosis, UniProt P96830). Description: Inhibition of Mycobacterium tuberculosis protein tyrosine phosphatase B.
Another test concerns Trypanosoma. In words: Growth inhibition of epimastigote form of Trypanosoma at 100 ug/ml. Particulars: read-out: GI. The class given is functional.
Test [13] concerns the target Tyrosine-protein phosphatase non-receptor type 1 (Homo sapiens, UniProt P18031). In words: Inhibition of GST-tagged PTP1B using pNPP as substrate by spectrophotometric analysis.
The test system of another test is Influenza B virus. Description: Antiviral activity against influenza B virus. The class given is functional, organism-based.
For another test, the system named is Human alphaherpesvirus 1. In words: Antiviral activity against Herpes simplex virus 1 KOS. The class given is functional, organism-based. To be noted: Human alphaherpesvirus 1, KOS.
In another test the test system is Influenza A virus. In words: Antiviral activity against Influenza A virus H3N2. The test is classed as functional, organism-based.
The subject of a further test is Human alphaherpesvirus 2. In words: Antiviral activity against Herpes simplex virus 2. The test is classed as functional, organism-based.
For test [14], the target named is T2, Human immunodeficiency virus type 1 integrase (Human immunodeficiency virus 1, UniProt Q7ZJM1). Description: Inhibition of HIV1 integrase strand transfer activity.
Test [15] addresses T2, Human immunodeficiency virus type 1 integrase. In words: Inhibition of HIV1 integrase 3' processing activity.
In another test the test system is Trypanosoma cruzi. In words: Growth inhibition of Trypanosoma cruzi at 100 ug/ml. The class given is functional. To be noted: read-out: GI.
Test [16] relates to Mycobacterium tuberculosis. Description: Antimycobacterial activity against Mycobacterium tuberculosis H37Rv by alamar blue susceptibility assay. The class given is functional. On the technique in general: Alamar Blue is a resazurin reagent that responds to reducing activity.

≈ marks a conversion by molar mass, not a printed value.

Broadly, the IC50 is the midpoint of a concentration-inhibition curve. A higher IC50 goes with weaker potency in that assay. The EC50 is the concentration at which the effect is half-maximal. Broadly, the Ki is a dissociation constant, usually derived from enzyme kinetics or from competition with a known ligand. Lower therefore signals higher affinity. Broadly, the MIC is the lowest concentration that inhibits growth of the organism. A higher MIC goes with weaker potency.

T2 sequence (Q7ZJM1 whole entry): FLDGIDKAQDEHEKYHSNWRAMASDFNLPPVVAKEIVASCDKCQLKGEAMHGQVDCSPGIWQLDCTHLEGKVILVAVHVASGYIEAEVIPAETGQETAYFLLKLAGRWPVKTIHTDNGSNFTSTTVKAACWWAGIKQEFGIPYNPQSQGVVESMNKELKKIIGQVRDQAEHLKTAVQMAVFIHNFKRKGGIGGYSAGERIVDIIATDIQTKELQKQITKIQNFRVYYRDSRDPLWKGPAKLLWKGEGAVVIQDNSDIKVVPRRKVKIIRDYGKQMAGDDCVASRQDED
Chain of Muscarinic acetylcholine receptor M1 (P08482 whole entry): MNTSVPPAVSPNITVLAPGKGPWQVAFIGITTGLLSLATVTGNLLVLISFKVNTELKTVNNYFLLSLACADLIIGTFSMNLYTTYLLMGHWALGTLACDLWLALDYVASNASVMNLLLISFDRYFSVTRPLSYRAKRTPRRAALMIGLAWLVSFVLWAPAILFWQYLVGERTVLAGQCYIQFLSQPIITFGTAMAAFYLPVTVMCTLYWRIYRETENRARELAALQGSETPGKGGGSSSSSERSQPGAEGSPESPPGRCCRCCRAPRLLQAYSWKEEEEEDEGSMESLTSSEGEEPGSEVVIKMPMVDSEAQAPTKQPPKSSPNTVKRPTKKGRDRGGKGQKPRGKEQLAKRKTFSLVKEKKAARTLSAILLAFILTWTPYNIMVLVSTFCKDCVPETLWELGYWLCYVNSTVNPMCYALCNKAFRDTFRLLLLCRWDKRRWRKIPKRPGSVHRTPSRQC
Chain of C-C chemokine receptor type 4 (P51679 whole entry): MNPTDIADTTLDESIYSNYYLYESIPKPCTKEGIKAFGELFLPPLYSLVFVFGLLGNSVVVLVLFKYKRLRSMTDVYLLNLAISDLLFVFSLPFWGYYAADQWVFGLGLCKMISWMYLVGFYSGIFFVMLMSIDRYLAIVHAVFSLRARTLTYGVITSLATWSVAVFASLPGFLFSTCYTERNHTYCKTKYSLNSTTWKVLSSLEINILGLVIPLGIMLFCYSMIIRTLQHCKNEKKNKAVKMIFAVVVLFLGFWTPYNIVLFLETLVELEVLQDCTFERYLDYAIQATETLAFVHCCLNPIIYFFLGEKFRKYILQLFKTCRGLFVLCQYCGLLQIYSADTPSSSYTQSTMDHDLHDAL
Chain of Phosphotyrosine-protein phosphatase PTPB (P96830 whole entry): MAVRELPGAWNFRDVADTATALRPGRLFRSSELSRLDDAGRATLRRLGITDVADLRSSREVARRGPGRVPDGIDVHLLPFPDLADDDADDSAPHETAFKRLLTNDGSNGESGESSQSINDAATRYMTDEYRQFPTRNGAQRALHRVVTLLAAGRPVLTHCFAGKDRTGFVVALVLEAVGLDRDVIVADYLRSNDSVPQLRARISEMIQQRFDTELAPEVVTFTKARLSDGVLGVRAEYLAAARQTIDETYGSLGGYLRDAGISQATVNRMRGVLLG
Chain of Tyrosine-protein phosphatase non-receptor type 1 (P18031 whole entry): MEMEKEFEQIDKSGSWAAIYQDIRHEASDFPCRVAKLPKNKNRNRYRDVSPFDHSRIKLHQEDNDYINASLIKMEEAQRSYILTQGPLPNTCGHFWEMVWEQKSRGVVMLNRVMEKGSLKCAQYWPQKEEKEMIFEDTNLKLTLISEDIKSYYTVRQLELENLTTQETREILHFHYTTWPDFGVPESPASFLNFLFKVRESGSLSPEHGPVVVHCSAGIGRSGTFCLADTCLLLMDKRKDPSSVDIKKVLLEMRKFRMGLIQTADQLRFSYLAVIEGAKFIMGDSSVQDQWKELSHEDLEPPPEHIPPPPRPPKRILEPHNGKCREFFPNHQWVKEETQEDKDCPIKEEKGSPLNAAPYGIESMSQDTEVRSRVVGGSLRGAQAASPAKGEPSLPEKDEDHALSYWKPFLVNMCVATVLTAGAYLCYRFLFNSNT

On to `Cc1nc(N2C(=O)CSC2c2ccccc2Cl)nc(C)c1C` (centres undefined), for which, in test [1], the half-inhibitory concentration (IC50) came to 2950 nM.
In turn, `COc1ccc(CCNC(=O)C[C@H]2S[C@@H](c3ccc(C#Cc4ccccc4)cc3)N(c3ccc(C(N)=O)c(Cl)c3)C2=O)cc1OC` had an EC50 in test [2] of 1 nM.
As for `CCOc1cc(CCNC(=O)C[C@H]2S[C@@H](c3ccc(C#Cc4ccccc4)cc3)NC2=O)ccc1OC`, the concentration for a half-maximal effect (EC50) in test [3] stood at 80 nM; in test [4], 50 nM.
In the case of `COc1ccc(Cc2cccc(C3SCC(=O)N3c3cccc(O)c3)c2)cc1C1SCC(=O)N1c1cccc(O)c1` (centres undefined), the LC50 in the test with Caenorhabditis elegans came out at 240 µg/mL (≈ 410 µM).
The compound `C[C@H](NC(=O)C[C@H]1S[C@H](c2ccc(Cl)cc2Cl)N(CC(=O)NCCCN2CCCCC2)C1=O)c1cccc2ccccc12` gave an IC50 in test [5] of 110 nM.
In the case of `CC1C(N2C(=O)CSC2c2cc(I)cc(I)c2O)C(=O)N(c2ccccc2)N1C` (centres undefined), the “inhibition zone (IZ)” value came to 24 mm with Bacillus subtilis, 25 mm in the test on Salmonella typhimurium and 27 mm in the test on Escherichia coli.
As to `Cc1cccc(N2C(=O)CSC2c2ccccn2)n1` (centres undefined), the EC50 in test [6] is 7.8 nM.
For `O=C(N/N=C1/SCC(=O)N1c1ccccc1)c1cc(-c2cc3ccccc3o2)n(-c2ccccc2)n1`, the “inhibition zone (IZ)” value in the test with Bacillus subtilis is listed as 40 mm.
For `COc1ccc(Cc2cccc(C3SC(CC(=O)O)C(=O)N3c3cccc(O)c3)c2)cc1C1SC(CC(=O)O)C(=O)N1c1cccc(O)c1` (centres undefined), the LC50 in [7] stood at 210 µg/mL (≈ 300 µM).
In test [8], `O=c1oc2ccccc2cc1-c1cs/c(=N\N=C\c2ccc(Cl)c(Cl)c2)n1C1CCCCC1` registered an Imax of 42%.
As to `COc1ccc(C(=O)Nc2ccc(C(=O)NN3C(=O)CSC3c3coc([N+](=O)[O-])c3)cc2)cc1` (centres undefined), the inhibition of growth at 6.25 µg/mL in [9] was found to be 90%.
For the compound `NS(=O)(=O)c1ccc(N2C(=O)CSC2c2ccccc2)cc1` (centres undefined), the “inhibition (INH)” value in the test with Rattus norvegicus was found to be 78%.
For the compound `CC1S/C(=N/N=C2\C(=O)Nc3ccc([N+](=O)[O-])cc32)N(c2ccc(Br)cc2)C1=O` (centres undefined), a half-maximal effect in test [10] (EC50) was put at 13 µg/mL (≈ 27.4 µM).
As to `Cc1ccc(C2SCC(=O)N2C2=CCCN(C)C2)cc1` (centres undefined), in [11], the IC50 is 143 µM and the Ki stood at 26 µM.
For the compound `COc1ccc(C(=O)Nc2ccc(C(=O)NN3C(=O)CSC3c3ccc(F)cc3)cc2)cc1` (centres undefined), in [9], the inhibition of growth at 6.25 µg/mL came to 98%.
For `O=C1CS(=O)(=O)C2(C(=O)N(Cc3ccc(Br)cc3)c3ccc([N+](=O)[O-])cc32)N1c1ccc(F)c(F)c1` (centres undefined), 1100 nM corresponded to half-maximal inhibition in [12] (IC50).
On to `O=C1CSC(c2cccc3ccccc23)N1c1ccc(Br)cc1` (centres undefined), for which the inhibition of growth at 100 µg/mL in the test on Trypanosoma was 91.4%.
As for `Cc1ccc(-c2cc(C(F)(F)F)nn2-c2ccc(S(N)(=O)=O)cc2)cc1` [CELECOXIB], the “inhibition (INH)” value in the test on Rattus norvegicus came out at 45%.
In [13], `O=C(O)CN1C(=O)/C(=C/c2ccc(-c3ccc(OCc4ccccc4)cc3)cc2)SC1=S` gave an IC50 of 480 nM.
As to `Cc1cc(C)nc(N2C(=O)CSC2c2c(C)cccc2C)c1` (centres undefined), the EC50 is 263 µM in the test on Influenza B virus, 130 µM in the test on Human alphaherpesvirus 1, 249 µM in the test with Influenza A virus and 161 µM in the test with Human alphaherpesvirus 2.
In the case of `O=C(Nc1ccc(O)cc1)C(=S)NN1C(=O)/C(=C\c2cc(I)cc(I)c2O)SC1=S`, the values for the half-inhibitory concentration (IC50) in [14] and in [15] were 3 µM and 7 µM, respectively.
With `CNC(=O)CC1S/C(=N\N=C(/C)c2cccc(Br)c2)N(C)C1=O` (centres undefined), the inhibition of growth at 100 µg/mL in the test with Trypanosoma cruzi worked out at 60%.
In test [16], `COc1cc(C2SCC(=O)N2NC(=O)c2ccncc2)ccc1O` (centres undefined) came in with a minimum inhibitory concentration (MIC) of 0.31 µg/mL (≈ 0.898 µM).
In the case of `Cc1c(N2C(=O)CSC2c2cc(I)cc(I)c2O)c(=O)n(-c2ccccc2)n1C` (centres undefined), the “inhibition zone (IZ)” value in the test with Bacillus subtilis was 24 mm; with Salmonella typhimurium, 25 mm; with Escherichia coli, 27 mm.

Values taken from ChEMBL document CHEMBL2216749, “Recent developments and biological activities of thiazolidinone derivatives: a review” (Bioorg Med Chem, 2012).
